Columns and labels:
[1] = test system: glucosyltransferase activity of desalted crude etiolated Sorghum seedling extract; test: Substrate specificity of desalted crude etiolated Sorghum seedling extract (TLC, 14C-UDP-glucose); format: biochemical, Sorghum bicolor; parameters: key: ▪: indicate that a radiolabelled product was visualised after incubation with the respective aglycone substrate; □: indicate that no radiolablled products could be detected under the experimental conditions employed; details: aglycone substrate
Experimental: (§1) Generally a 20 μl reaction mixture including • 100 mM Tris HCl (pH 7.9), • 1–5 μM ^14C-UDP-glucose (11.0 GBq mmol^−1, Amersham LIFE SCIENCE), • 0–300 μM UDP-glucose, • 0–20 mM p-hydroxymandelonitrile (dissolved in water, freshly prepared), • 25 mM γ-gluconolactone, • 0–1 mg BSA and • 0.5–10 μl of protein preparation, is incubated at 30° C. between 2 minutes and 2 hours. Thereafter the reaction is terminated by the addition of 1/10 of the reaction volume of 10% acetic acid. The same assay conditions are used to determine the glucosylation of mandelonitrile, benzoic acid, benzylalcohol, geraniol and a number of other aglycons.
(§2) For TLC analysis the reaction mixture is applied to Silica Gel 60 F254 plates (Merck), dried and eluted in a solvent containing ethyl acetate:acetone:dichloromethane:methanol:[…] (40:30:12:10:8, v/v). Plates are dried for one hour at room temperature and exposed to storage phosphorlmaging plates (Molecular Dynamics) prior to scanning on a Storm 860 Phosphorimager (Molecular Dynamics).
(§3) Substrate Specificity of Recombinant sbHMNGT Compared to Desalted Crude Etiolated Sorghum Seedling Extract
(§4) Glucosyltransterase activity was determined by TLC using ^14C-UDP-glucose. Filled boxes in Table 1 below (▪) indicate that a radiolabelled product was visualised after incubation with the respective aglycone substrate. Empty boxes (□) indicate that no radiolablled products could be detected under the experimental conditions employed. Figures in brackets indicate the relative Vmax for each aglycon with calculated standard deviations.

[2] = molecular target: T1, recombinant sbHMNGT (UDP-glucose:p-hydroxymandelonitrile-glucosyltransferase) (Sorghum bicolor, UniProt Q9SBL1); test: Substrate specificity of recombinant sbHMNGT (TLC, 14C-UDP-glucose); format: biochemical; parameters: key to ACTIVITY Recombinant sbHMNGT (radiolabelled glucoside product): ▪: indicate that a radiolabelled product was visualised after incubation with the respective aglycone substrate; □: indicate that no radiolablled products could be detected under the experimental conditions employed; details: for ACTIVITY Recombinant sbHMNGT (radiolabelled glucoside product): 1.25 mM aglycone, 100 ng recombinant sbHMNGT, 20 min at 30° C., TLC
T1 construct: are used to amplify a 1500 bp full-length sbHMNGT insert by PCR; made in house; host or cells: E. coli JM109, vector pSP19g10L
Experimental: as §1
To determine the substrate specificity of recombinant sbHMNGT incubation lasts for 20 min at 30° C. and the general protocol above is adapted to include • 1.25 mM aglycone (dissolved in ethanol except for flavonoids which are dissolved in ethylene glycol monoether), • 1.25 μM ^14C-UDP-glucose, • 12.5 μM UDP-glucose, • 100 ng recombinant sbHMNGT, and • 4 μg BSA.
as §2, §3, §4

sbHMNGT [3] = molecular target: T2, sbHMNGT (Sorghum bicolor, UniProt Q9SBL1); test: Quantitative determination of the activity of recombinant sbHMNGT (Vmax); format: biochemical; parameters: are used to amplify a 1500 bp full-length sbHMNGT insert by PCR; made in house; host or cells: E. coli JM109, vector pSP19g10L; details: for relative Vmax with calculated standard deviations: relative to p-hydroxymandelonitrile, 1, 5 or 10 mM aglycone, 4 minutes at 30° C.
Experimental: as §1
Quantitative determination of the activity of recombinant sbHMNGT is carried out using 4 minutes incubation at 30° C. Analyses are carried out as for the determination of substrate specificity except that the reaction mixtures are composed as folows: • 1, 5 or 10 mM aglycone, • 5 μM ^14C-UDP-glucose, • 0.2 mM UDP-glucose, • 200 ng recombinant sbHMNGT, and • 24 μg BSA.
as §4

sbHMNGT [4] = molecular target: T2, sbHMNGT; test: sbHMNGT activity assay during purification (LSC); format: biochemical; parameters: from tissue; host or cells: etiolated Sorghum bicolor seedling shoots; ammonium sulphate, Q-sepharose and Reactive Yellow 3 fractions; details: native sbHMNGT
Experimental: as §1
For analysis by liquid scintillation counting (LSC) reaction mixtures are extracted with 400 μl of ethyl acetate to separate glucosides from unincorporated ^14C-UDP-glucose. 2 ml of Ecoscint A (National Diagnostics, New Jersey, USA) are added to 250 μl of each ethyl acetate extract and analyzed using a Win Spectral 1414 (Wallac) liquid scintillation counter. Mandelonitrile is used as substrate to assay fractions generated by liquid chromatography.
Except where indicated all steps are carried out at 4° C. […] Furthermore, the absence of a hydroxyl group at the para-position of the benzene ring rules out the possibility of p-glucosyloxymandelonitrile synthesis, which would be indistinguishable from dhurrin using the LSC assay.

T2 sequence (Q9SBL1 whole entry): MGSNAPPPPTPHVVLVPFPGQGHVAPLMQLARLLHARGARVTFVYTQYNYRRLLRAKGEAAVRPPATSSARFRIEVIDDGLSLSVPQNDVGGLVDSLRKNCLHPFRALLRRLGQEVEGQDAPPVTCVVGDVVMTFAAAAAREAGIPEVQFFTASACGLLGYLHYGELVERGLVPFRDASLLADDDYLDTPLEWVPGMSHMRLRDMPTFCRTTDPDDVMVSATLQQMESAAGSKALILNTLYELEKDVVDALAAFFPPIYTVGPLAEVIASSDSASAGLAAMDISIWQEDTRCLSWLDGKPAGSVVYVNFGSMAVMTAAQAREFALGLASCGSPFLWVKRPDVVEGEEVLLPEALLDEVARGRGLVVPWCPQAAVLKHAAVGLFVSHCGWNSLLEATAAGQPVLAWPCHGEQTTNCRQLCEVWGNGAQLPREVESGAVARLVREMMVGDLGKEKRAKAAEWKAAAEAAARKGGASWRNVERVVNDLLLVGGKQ
T1 sequence (Q9SBL1 whole entry): as above

## CCCCCCO [1-hexanol]
[1]
  ACTIVITY Crude Sorghum extract (radiolabelled glucoside product): ▪
[2]
  ACTIVITY Recombinant sbHMNGT (radiolabelled glucoside product): ▪

## O=C(O)C=Cc1ccccc1O [2-hydroxy cinnamic acid]
[1]
  ACTIVITY Crude Sorghum extract (radiolabelled glucoside product): ▪
[2]
  ACTIVITY Recombinant sbHMNGT (radiolabelled glucoside product): □

## COc1cccc(CO)c1O [2-hydroxy-3-methoxybenzlalcohol]
[1]
  ACTIVITY Crude Sorghum extract (radiolabelled glucoside product): ▪
[2]
  ability of sbHMNGT to glucosylate the aglycon: glucosylate
  ACTIVITY Recombinant sbHMNGT (radiolabelled glucoside product): ▪

## CCCC(C)=CCO [3-methyl-2-hexen-1-ol]
[1]
  ACTIVITY Crude Sorghum extract (radiolabelled glucoside product): ▪
[2]
  ACTIVITY Recombinant sbHMNGT (radiolabelled glucoside product): ▪

## CCC=C(C)CCO [3-methyl-3-hexen-1-ol]
[1]
  ACTIVITY Crude Sorghum extract (radiolabelled glucoside product): ▪
[2]
  ACTIVITY Recombinant sbHMNGT (radiolabelled glucoside product): ▪

## CC(C)(O)C#N [acetone cyanohydrin]
[1]
  ACTIVITY Crude Sorghum extract (radiolabelled glucoside product): □
[2]
  ACTIVITY Recombinant sbHMNGT (radiolabelled glucoside product): □

## O=c1cc(-c2ccc(O)cc2)oc2cc(O)cc(O)c12 [apigenin]
[1]
  ACTIVITY Crude Sorghum extract (radiolabelled glucoside product): ▪
[2]
  ACTIVITY Recombinant sbHMNGT (radiolabelled glucoside product): □

## O=C(O)c1ccccc1 [benzoic acid]
[1]
  ACTIVITY Crude Sorghum extract (radiolabelled glucoside product): ▪
[2]
  ability of sbHMNGT to glucosylate the aglycon: glucosylate
  ACTIVITY Recombinant sbHMNGT (radiolabelled glucoside product): ▪
sbHMNGT [3]
  rate of glucosylation compared with the cyanohydrins: lower than those observed for the cyanohydrins
sbHMNGT [3]; recombinant sbHMNGT
  relative Vmax with calculated standard deviations: (4.2 ± 0.8%)

## OCc1ccccc1 [benzyl alcohol]
[1]
  ACTIVITY Crude Sorghum extract (radiolabelled glucoside product): ▪
[2]
  ability of sbHMNGT to glucosylate the aglycon: glucosylate
  ACTIVITY Recombinant sbHMNGT (radiolabelled glucoside product): ▪
sbHMNGT [3]
  rate of glucosylation compared with the cyanohydrins: lower than those observed for the cyanohydrins
sbHMNGT [3]; recombinant sbHMNGT
  relative Vmax with calculated standard deviations: (13.1 ± 2.1%)

## COc1ccc(-c2coc3cc(O)cc(O)c3c2=O)cc1 [biochanin A]
[1]
  ACTIVITY Crude Sorghum extract (radiolabelled glucoside product): ▪
[2]
  ACTIVITY Recombinant sbHMNGT (radiolabelled glucoside product): □

## O=C(O)/C=C/c1ccc(O)c(O)c1 [caffeic acid]
[1]
  ACTIVITY Crude Sorghum extract (radiolabelled glucoside product): ▪
[2]
  ACTIVITY Recombinant sbHMNGT (radiolabelled glucoside product): □

## CC/C=C\CCO [cis-3-hexen-1-ol]
[1]
  ACTIVITY Crude Sorghum extract (radiolabelled glucoside product): ▪
[2]
  ACTIVITY Recombinant sbHMNGT (radiolabelled glucoside product): ▪

## O=C(O)c1cc(O)ccc1O [gentisic acid]
[1]
  ACTIVITY Crude Sorghum extract (radiolabelled glucoside product): □
[2]
  ACTIVITY Recombinant sbHMNGT (radiolabelled glucoside product): □

## CC(C)=CCC/C(C)=C/CO [geraniol]
[1]
  ACTIVITY Crude Sorghum extract (radiolabelled glucoside product): ▪
[2]
  ability of sbHMNGT to glucosylate the aglycon: glucosylate
  ACTIVITY Recombinant sbHMNGT (radiolabelled glucoside product): ▪
sbHMNGT [3]
  rate of glucosylation compared with the cyanohydrins: lower than those observed for the cyanohydrins
sbHMNGT [3]; recombinant sbHMNGT
  relative Vmax with calculated standard deviations: (11.0 ± 0.5%)

## Oc1ccc(O)cc1 [hydroquinone]
[1]
  ACTIVITY Crude Sorghum extract (radiolabelled glucoside product): ▪
[2]
  ACTIVITY Recombinant sbHMNGT (radiolabelled glucoside product): □

## N#CC(O)c1ccccc1 (centres unmarked) [mandelonitrile]
[1]
  ACTIVITY Crude Sorghum extract (radiolabelled glucoside product): ▪
[2]
  ACTIVITY Recombinant sbHMNGT (radiolabelled glucoside product): ▪
sbHMNGT [3]; recombinant sbHMNGT
  relative Vmax with calculated standard deviations: (77.8 ± 8.6%)
sbHMNGT [4]
  substrate quality compared with p-hydroxymandelonitrile: equally good substrate

## O=C1C[C@@H](c2ccc(O)cc2)Oc2cc(O)cc(O)c21 [naringenin]
[1]
  ACTIVITY Crude Sorghum extract (radiolabelled glucoside product): ▪
[2]
  ACTIVITY Recombinant sbHMNGT (radiolabelled glucoside product): □

## CC(C)=CCC/C(C)=C\CO [nerol]
[1]
  ACTIVITY Crude Sorghum extract (radiolabelled glucoside product): ▪
[2]
  ability of sbHMNGT to glucosylate the aglycon: glucosylate
  ACTIVITY Recombinant sbHMNGT (radiolabelled glucoside product): ▪

## CC(C)=CCCC(C)CCO (centres unmarked) [p-citronellol]
[1]
  ACTIVITY Crude Sorghum extract (radiolabelled glucoside product): ▪
[2]
  ability of sbHMNGT to glucosylate the aglycon: glucosylate
  ACTIVITY Recombinant sbHMNGT (radiolabelled glucoside product): ▪

## O=Cc1ccc(O)cc1 [p-hydroxybenzaldehyde]
[1]
  ACTIVITY Crude Sorghum extract (radiolabelled glucoside product): ▪
[2]
  ACTIVITY Recombinant sbHMNGT (radiolabelled glucoside product): □

## O=C(O)c1ccc(O)cc1 [p-hydroxybenzoic acid]
[1]
  ACTIVITY Crude Sorghum extract (radiolabelled glucoside product): ▪
[2]
  ACTIVITY Recombinant sbHMNGT (radiolabelled glucoside product): □

## OCc1ccc(O)cc1 [p-hydroxybenzyl alcohol]
[1]
  ACTIVITY Crude Sorghum extract (radiolabelled glucoside product): ▪
[2]
  ACTIVITY Recombinant sbHMNGT (radiolabelled glucoside product): ▪

## O=C(O)C(O)c1ccc(O)cc1 (centres unmarked) [p-hydroxymandelic acid]
[1]
  ACTIVITY Crude Sorghum extract (radiolabelled glucoside product): ▪
[2]
  ACTIVITY Recombinant sbHMNGT (radiolabelled glucoside product): □

## N#CC(O)c1ccc(O)cc1 (centres unmarked) [p-hydroxymandelonitrile]
[1]
  ACTIVITY Crude Sorghum extract (radiolabelled glucoside product): ▪
[2]
  ACTIVITY Recombinant sbHMNGT (radiolabelled glucoside product): ▪
sbHMNGT [3]; recombinant sbHMNGT
  Vmax: 1500 mol of product/mol of sbHMNGT/sec
  relative Vmax with calculated standard deviations: (100 ± 7.2%)

## O=c1c(O)c(-c2ccc(O)c(O)c2)oc2cc(O)cc(O)c12 [quercetin]
[1]
  ACTIVITY Crude Sorghum extract (radiolabelled glucoside product): ▪
[2]
  ACTIVITY Recombinant sbHMNGT (radiolabelled glucoside product): □

## Oc1ccc(C=Cc2cc(O)cc(O)c2)cc1 [resveratrol]
[1]
  ACTIVITY Crude Sorghum extract (radiolabelled glucoside product): ▪
[2]
  ACTIVITY Recombinant sbHMNGT (radiolabelled glucoside product): □

## O=C(O)c1ccccc1O [salicylic acid]
[1]
  ACTIVITY Crude Sorghum extract (radiolabelled glucoside product): ▪
[2]
  ACTIVITY Recombinant sbHMNGT (radiolabelled glucoside product): □

## C[C@H]1CC[C@]2(NC1)O[C@H]1C[C@H]3[C@@H]4CC[C@H]5C[C@@H](O)CC[C@]5(C)[C@H]4CC[C@]3(C)[C@H]1[C@@H]2C [tomatidine]
[1]
  ACTIVITY Crude Sorghum extract (radiolabelled glucoside product): ▪
[2]
  ACTIVITY Recombinant sbHMNGT (radiolabelled glucoside product): □

## CCC/C=C/CO [trans-2-hexen-1-ol]
[1]
  ACTIVITY Crude Sorghum extract (radiolabelled glucoside product): ▪
[2]
  ACTIVITY Recombinant sbHMNGT (radiolabelled glucoside product): ▪

## COc1cc(C(=O)O)ccc1O [vanillic acid]
[1]
  ACTIVITY Crude Sorghum extract (radiolabelled glucoside product): ▪
[2]
  ability of sbHMNGT to glucosylate the aglycon: glucosylate
  ACTIVITY Recombinant sbHMNGT (radiolabelled glucoside product): ▪

## COc1cc(C=O)ccc1O [vanillin]
[1]
  ACTIVITY Crude Sorghum extract (radiolabelled glucoside product): ▪
[2]
  ability of sbHMNGT to glucosylate the aglycon: glucosylate
  ACTIVITY Recombinant sbHMNGT (radiolabelled glucoside product): ▪
